# Measurements from patent US6251605A, “Yeast cells having mutations in Cav1 and uses therefor” (priority 1999, dated 2001).
# Molecular target: T1, Ste2 receptor (Saccharomyces cerevisiae, UniProt D6VTK4)
# T1 construct: The wild type strain and a cav1 mutant strain, transformed with the plasmid; endogenous in cells; host or cells: S. cerevisiae wild type and cav1 mutant strains carrying the FUS1-lacZ reporter plasmid
# Experiment: FUS1-lacZ β-galactosidase reporter assay, Ste2-mediated signaling
# Assay type: cell-based, S. cerevisiae
# Details: 30 minutes incubation
# Procedure: In order to determine whether the CAV1 gene is involved in Ste2-mediated signaling, the effects of a cav1 mutation on the levels of FUS1-lacZ induction in response to o-factor were studied as described below. Transformants were grown to the mid-exponential phase in the medium SC without uracil. 100 μt aliquots of cultures were incubated in 96-well plates in the presence of increasing concentrations of α-factor at 30° C. for 30 minutes prior to assaying β-galactosidase activity. 20 μl of 6X Z-buffer (0.6 M sodium phosphate, pH 7.0, 60 mM KCl, 6 mM MgCl2, 1.6% (v/v) β-mercaptoethanol) containing 10 mM chlorophenolred-β-D-galactoside (CPRG) and 2.5% Triton X-100 was added to each aliquot followed by incubation at room temperature for 30-60 min. The enzymatic reactions were stopped by adding […] of 1 M sodium carbonate and A575 values were determined using a Biomek Plate Reader (Beckman).
# The wild type strain and a cav1 mutant strain, transformed with the plasmid Cpl 584 encoding the FUS 1-lacZ reporter gene, were incubated in the presence of α-factor for 30 minutes prior to the β-galactosidase assay. […] Furthermore, the rate of ligand-independent endocytosis of Ste2 receptor, and of Ste3 receptor, respectively, decreased by approximately two-fold in the cav1 mutant. Therefore, an increase in Ste2β mediated signaling may be attributed to the reduced internalization of yeast GPCRs.
# T1 sequence (D6VTK4 whole entry): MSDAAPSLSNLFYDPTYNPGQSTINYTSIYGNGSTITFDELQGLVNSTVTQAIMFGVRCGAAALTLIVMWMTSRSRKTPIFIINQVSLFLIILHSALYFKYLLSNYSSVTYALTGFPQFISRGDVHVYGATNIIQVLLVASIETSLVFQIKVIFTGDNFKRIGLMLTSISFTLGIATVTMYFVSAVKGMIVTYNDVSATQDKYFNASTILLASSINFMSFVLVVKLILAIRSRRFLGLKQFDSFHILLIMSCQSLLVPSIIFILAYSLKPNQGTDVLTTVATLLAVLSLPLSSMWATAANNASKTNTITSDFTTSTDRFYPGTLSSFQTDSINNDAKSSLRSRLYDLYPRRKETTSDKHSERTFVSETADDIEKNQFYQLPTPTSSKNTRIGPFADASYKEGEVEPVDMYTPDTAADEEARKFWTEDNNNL
substance,measurement,setting,value
α-factor,higher levels of ligand-induced β-galactosidase activity in mutant strain compared with wild type strain,cav1 mutant versus wild type,50-100%
same,estimated EC50 values for α-factor,wild type strain versus cav1 mutant strain,virtually identical
